How the values were obtained:
Experiment in all cases: relative viability (nuclei count vs DMSO), 5 days (fraction); higher = more cells survive
Crenolanib + Pemetrexed = compound: CC1(COc2ccc3c(c2)ncn3-c2ccc3cccc(N4CCC(N)CC4)c3n2)COC1 [Crenolanib] + Nc1nc2[nH]cc(CCc3ccc(C(=O)N[C@@H](CCC(=O)O)C(=O)O)cc3)c2c(=O)[nH]1 [Pemetrexed] (partner 0.2 µM)
How it was run: (§1)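 Lung cancer cell lines, seeded in 1536-well plates, were treated the following day by pin tool with a single drug or with five library-drug doses (not always all listed) in √10 steps on top of a fixed anchor-drug dose. Cells were fixed and nuclei stained in one step after 5 days, and nuclei were counted. Relative viability is the nuclei count for treated wells divided by that for vehicle wells, reported as medians of duplicate plates.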

Tivantinib + Olaparib = compound: O=C1NC(=O)[C@@H](c2cn3c4c(cccc24)CCC3)[C@@H]1c1c[nH]c2ccccc12 [Tivantinib] + O=C(c1cc(Cc2n[nH]c(=O)c3ccccc23)ccc1F)N1CCN(C(=O)C2CC2)CC1 [Olaparib] (partner 8 µM)
How it was run: as §1

Tivantinib + OSI-027 = compound: O=C1NC(=O)[C@@H](c2cn3c4c(cccc24)CCC3)[C@@H]1c1c[nH]c2ccccc12 [Tivantinib] + COc1cccc2cc(-c3nc([C@H]4CC[C@H](C(=O)O)CC4)n4ncnc(N)c34)[nH]c12 [OSI-027] (partner 0.5 µM)
How it was run: as §1

Tivantinib + Decitabine = compound: O=C1NC(=O)[C@@H](c2cn3c4c(cccc24)CCC3)[C@@H]1c1c[nH]c2ccccc12 [Tivantinib] + Nc1ncn([C@H]2C[C@H](O)[C@@H](CO)O2)c(=O)n1 [Decitabine] (partner 2 µM)
How it was run: as §1

| Cell Line | relative viability (Crenolanib + Pemetrexed; first compound 0.01 µM) | relative viability (Crenolanib + Pemetrexed; first compound 0.03162 µM) | relative viability (Crenolanib + Pemetrexed; first compound 0.1 µM) | relative viability (Crenolanib + Pemetrexed; first compound 0.3162 µM) | relative viability (Crenolanib + Pemetrexed; first compound 1 µM) | relative viability (Tivantinib + Olaparib; first compound 0.01 µM) | relative viability (Tivantinib + Olaparib; first compound 0.03162 µM) | relative viability (Tivantinib + Olaparib; first compound 0.1 µM) | relative viability (Tivantinib + Olaparib; first compound 0.3162 µM) | relative viability (Tivantinib + OSI-027; first compound 0.01 µM) | relative viability (Tivantinib + OSI-027; first compound 0.03162 µM) | relative viability (Tivantinib + OSI-027; first compound 0.1 µM) | relative viability (Tivantinib + OSI-027; first compound 0.3162 µM) | relative viability (Tivantinib + Decitabine; first compound 0.01 µM) | relative viability (Tivantinib + Decitabine; first compound 0.03162 µM) | relative viability (Tivantinib + Decitabine; first compound 0.1 µM) | relative viability (Tivantinib + Decitabine; first compound 0.3162 µM) |
| --- | --- | --- | --- | --- | --- | --- | --- | --- | --- | --- | --- | --- | --- | --- | --- | --- | --- |
| NCI-H441 | 0.261 | 0.278 | 0.269 | 0.312 | 0.273 | 0.482 | 0.552 | 0.58 | 0.744 | 0.517 | 0.608 | 0.498 | 0.471 | 0.22 | 0.261 | 0.139 | 0.239 |
| NCI-H1355 | 1.07 | 1.12 | 0.947 | 1.13 | 1.01 | 0.807 | 0.742 | 0.726 | 0.64 | 0.434 | 0.348 | 0.401 | 0.356 | 0.377 | 0.316 | 0.342 | 0.381 |
| NCI-H23 | 0.761 | 0.62 | 0.644 | 0.817 | 0.615 | 0.357 | 0.335 | 0.387 | 0.348 | 0.651 | 0.366 | 0.515 | 0.518 | 0.333 | 0.294 | 0.31 | 0.318 |
| NCI-H522 | 0.976 | 1.19 | 1.06 | 1.06 | 0.738 | 0.639 | 0.579 | 0.698 | 0.517 | 0.749 | 0.648 | 0.624 | 0.617 | 0.715 | 0.551 | 0.633 | 0.535 |
| LC-2-ad | 0.265 | 0.287 | 0.277 | 0.291 | 0.261 | 0.684 | 0.685 | 0.692 | 0.706 | 0.851 | 0.738 | 0.816 | 0.573 | 0.858 | 0.838 | 0.815 | 0.804 |
| NCI-H650 | 1.03 | 1.01 | 0.93 | 0.932 | 0.918 | 0.41 | 0.432 | 0.356 | 0.34 | 0.542 | 0.403 | 0.501 | 0.641 | 0.355 | 0.287 | 0.315 | 0.327 |
| SK-MES-1 | 1.06 | 0.964 | 0.886 | 0.967 | 0.929 | 0.751 | 0.659 | – | 0.874 | 0.668 | 0.435 | 0.554 | 0.482 | 0.299 | 0.351 | – | 0.337 |
| NCI-H2170 | 0.366 | 0.266 | 0.276 | 0.286 | 0.271 | 0.558 | 0.658 | 0.507 | – | 0.645 | 0.718 | 0.652 | – | 0.47 | 0.48 | 0.486 | – |
| NCI-H2087 | 0.719 | 0.7 | 0.684 | 0.555 | 0.675 | 0.56 | 0.628 | 0.602 | 0.658 | 0.635 | 0.511 | 0.465 | 0.478 | 0.326 | 0.311 | 0.21 | 0.196 |
| NCI-H838 | 0.247 | 0.253 | 0.258 | 0.264 | 0.281 | 0.775 | 0.77 | 0.71 | 0.816 | 0.394 | 0.377 | 0.345 | 0.363 | 0.446 | 0.48 | 0.428 | 0.442 |
| NCI-H460 | 0.063 | 0.067 | 0.075 | 0.0642 | 0.0669 | 0.412 | 0.429 | 0.399 | 0.39 | 0.608 | 0.573 | 0.619 | 0.864 | 0.496 | 0.499 | 0.427 | 0.458 |
| LU99A | 0.22 | 0.204 | 0.151 | 0.197 | 0.198 | 0.272 | 0.267 | 0.251 | 0.254 | 0.295 | 0.295 | 0.296 | 0.249 | 0.869 | 0.853 | 0.865 | 0.849 |
| NCI-H322M | 0.597 | 0.583 | 0.631 | 0.6 | 0.605 | 0.718 | 0.754 | 0.777 | – | 0.542 | 0.501 | 0.546 | – | 0.615 | 0.703 | 0.715 | – |
| NCI-H520 | 0.701 | 0.792 | 0.628 | 0.684 | 0.702 | 0.347 | 0.339 | 0.291 | 0.37 | 0.318 | 0.221 | 0.261 | 0.261 | 0.462 | 0.454 | 0.46 | 0.436 |
| NCI-H661 | 0.959 | 0.903 | 0.925 | 0.966 | 0.979 | 0.742 | 0.744 | 0.706 | 0.699 | 0.72 | 0.665 | 0.755 | 0.396 | 0.565 | 0.542 | 0.558 | 0.398 |
| NCI-H1793 | 1.02 | 0.912 | 0.835 | 1.08 | 0.993 | 0.982 | 0.761 | 0.819 | 0.45 | 0.257 | 0.355 | 0.258 | 0.154 | 0.502 | 0.497 | 0.495 | 0.404 |
| NCI-H1755 | 0.468 | 0.43 | 0.416 | 0.499 | 0.453 | 0.9 | 0.85 | 0.848 | 0.898 | 0.775 | 0.662 | 0.69 | 0.791 | 0.727 | 0.67 | 0.725 | 0.765 |
| HARA | 0.3 | 0.231 | 0.224 | 0.225 | 0.236 | 1.02 | 0.49 | 0.735 | 0.732 | 0.583 | 0.359 | 0.509 | 0.26 | 0.457 | 0.61 | 0.469 | 0.543 |
| 201T | 0.324 | 0.323 | 0.34 | 0.322 | 0.338 | 0.837 | 0.794 | 0.817 | 0.831 | 0.962 | 0.718 | 0.665 | 0.74 | 0.829 | 0.861 | 0.839 | 0.81 |

From the supplement of paper PMC10307832
